The record followed here is patent US10106539B2, “Spiro-indolines for the treatment and prophylaxis of respiratory syncytial virus infection (RSV)” (REVIRAL LIMITED, priority 2014, dated 2018).

One series relates to human P-gp (MDR1). Nature of the series: MDR1-MDCK permeability. The following applies: dog. It counts as in vitro ADME. How it is done: MDR1-MDCK Permeability: Experimental Procedure
MDR1-MDCK cells obtained from the NIH (Rockville, Md., USA) are used between passage numbers 6-30. Cells are seeded onto Millipore Multiscreen Transwell plates at 3.4×10^5 cells/cm2. The cells are cultured in DMEM and media is changed on day 3. On day 4 the permeability study is performed. Cell culture and assay incubations are carried out at 37° C. in an atmosphere of 5% CO2 with a relative humidity of 95%. On the day of the assay, the monolayers are prepared by rinsing both basolateral and apical surfaces twice with Hanks Balanced Salt Solution (HBSS) at the desired pH warmed to 37° C. Cells are then incubated with HBSS at the desired pH in both apical and basolateral compartments for 40 min to stabilise physiological parameters.
The dosing solutions are prepared by diluting test compound with assay buffer to give a final test compound concentration of 10 μM (final DMSO concentration of 1% v/v). The fluorescent integrity marker lucifer yellow is also included in the dosing solution. Analytical standards are prepared from test compound DMSO dilutions and transferred to buffer, maintaining a 1% v/v DMSO concentration.
For assessment of A-B permeability, HBSS is removed from the apical compartment and replaced with test compound dosing solution. The apical compartment insert is then placed into a companion plate containing fresh buffer (containing 1% v/v DMSO). For assessment of B-A permeability, HBSS is removed from the companion plate and replaced with test compound dosing solution. Fresh buffer (containing 1% v/v DMSO) is added to the apical compartment insert, which is then placed into the companion plate.
At 60 min the apical compartment inserts and the companion plates are separated and apical and basolateral samples diluted for analysis.
Test compound permeability is assessed in duplicate. Compounds of known permeability characteristics are run as controls on each assay plate.
Test and control compounds are quantified by LC-MS/MS cassette analysis using an 8-point calibration with appropriate dilution of the samples. The starting concentration (C0) is determined from the dosing solution and the experimental recovery calculated from C0 and both apical and basolateral compartment concentrations.
The integrity of the monolayer throughout the experiment is checked by monitoring lucifer yellow permeation using fluorimetric analysis. Lucifer yellow permeation is high if monolayers have been damaged.

The nature of series [1]: Plasma protein binding (equilibrium dialysis), dog. The series is classed as in vitro ADME. Particulars: plasma (100%). The procedure: Protein Binding Determination: Experimental Procedure
Solutions of test compound (5 μM, 0.5% final DMSO concentration) are prepared in buffer (pH 7.4) and 100% species-specific plasma. The experiment is performed using equilibrium dialysis with the two compartments separated by a semi-permeable membrane. The buffer solution is added to one side of the membrane and the plasma solution to the other side. After equilibration, samples are taken from both sides of the membrane. Standards are prepared in plasma and buffer and are incubated at 37° C.
Test compound incubations are performed in duplicate. A control compound is included in each experiment.
The solutions for each batch of compounds are combined into two groups (protein-free and protein-containing), then cassette analysed by LC-MS/MS using two sets of calibration standards for protein-free (7 points) and protein-containing solutions (6 points).
A general note: In equilibrium dialysis only unbound substance equilibrates across the membrane.

Series [2] can be described thus: In vivo pharmacokinetics in rats (IV and PO). On the set-up: species or system male Sprague Dawley rats. Particulars: rat; for Vd: 1 mg/kg (IV). How it is done:
The pharmacokinetics of compounds were studied in vivo in male Sprague Dawley rats at doses of 1 mg/kg (IV) and 10 mg/kg (PO).
Sprague Dawley rats were treated with experimental compounds via intravenous and oral administration. Three animals for each route of administration were used with serial blood sampling at ten time points post dosing of compound.
Animals were weighed and used if between 200-250 g. Serial blood samples were collected at 0.02, 0.08, 0.25, 0.50, 1, 2, 4, 6, 8 and 24 hours post dosing. […] Blood samples were delivered into an anticoagulant (sodium heparin) and centrifuged at 4° C. Plasma samples were subsequently stored frozen at less than −20° C. prior to analysis.
Following protein precipitation with acetonitrile, samples were analysed with tandem liquid chromatography/mass spectrometry using electrospray ionisation. A full matrix curve with internal standards was employed and PK parameters were calculated.
In a similar manner, oral administration was performed by gavage at doses of 5 or 10 mg/kg at a concentration of 5 mg/ml in 1% Methyl cellulose (Sigma M7140), 0.1% Tween 80 in water. Serial samples were taken as described above.
RV039 was administered at doses of 1 mg/kg (IV) and 5 mg/kg (PO).

Series [3] can be described thus: Liver microsomal stability, dog. The series is classed as in vitro ADME. Particulars: male, Beagle, pooled liver microsomes, pH 7.4, Comparative Example 2, read-out: Liver Microsomal Stability T1/2, dog (Table 5). How it is done: Microsomal Incubation: Experimental Procedure
Pooled human liver microsomes (pooled male and female), pooled rat liver microsomes (male Sprague Dawley rats) and pooled dog liver microsomes (male Beagle dog) are purchased from a reputable commercial supplier and stored at −80° C. prior to use.
Microsomes (final protein concentration 0.5 mg/mL), 0.1 M phosphate buffer pH 7.4 and test compound (final substrate concentration 3 μM; final DMSO concentration 0.25%) are pre-incubated at 37° C. prior to the addition of NADPH (final concentration 1 mM) to initiate the reaction. The final incubation volume is 50 μL. A control incubation is included for each compound tested where 0.1 M phosphate buffer pH 7.4 is added instead of NADPH (minus NADPH). Two control compounds are included with each species. All incubations are performed singularly for each test compound.
Compounds are incubated for 0, 5, 15, 30 and 45 min. The control (minus NADPH) is incubated for 45 min only. The reactions are stopped by transferring 25 μL of incubate to 50 μL methanol at the appropriate time points. The termination plates are centrifuged at 2,500 rpm for 20 min at 4° C. to precipitate the protein. Following protein precipitation, the sample supernatants are combined in cassettes of up to 4 compounds, internal standard is added and samples analysed by LC-MS/MS. From a plot of ln peak area ratio (compound peak area/internal standard peak area) against time, the gradient of the line is determined. Subsequently, half-life and intrinsic clearance are calculated
For orientation: Liver microsomes are vesicles of endoplasmic reticulum, rich in cytochrome P450 enzymes.

Where two headings read alike, the source gives them in different places.

For orientation: Papp A→B means the apparent permeability from the apical to the basolateral side of a cell layer. By Papp B→A is commonly meant how fast a substance crosses the layer from the basolateral side. For orientation: fraction unbound means the share of the substance not bound to proteins or other matrix. One may read the bioavailability as the share of a dose that reaches the circulation, judged against a reference dose that is usually intravenous. For orientation: Tmax means the time from dosing to the highest level. For `NCc1ccc2c(c1)nc(CN1C(=O)C3(CC3)c3ccc(F)cc31)n2CCCC(F)(F)F` [Example 1, 1′-{[5-(Aminomethyl)-1-(4,4,4-trifluorobutyl)-1H-1,3-benzodiazol-2-yl]methyl}-6′-fluoro-1′,2′-dihydrospiro[cyclopropane-1,3′-indole]-2′-one], the apparent permeability from apical to basolateral (Papp A→B) at 60 min, 10 μM in the series on human P-gp (MDR1) (A-B, 10 μM, 60 min, read-out: Permeability (Human Pgp transfected) MDCK Papp A-B) is 0.5 ×10⁻⁶ cm/s. Moreover, in the series on human P-gp (MDR1) (B-A, 10 μM, 60 min, read-out: Permeability (Human Pgp transfected) MDCK Papp B-A), the Papp B→A at 60 min, 10 μM turned out to be 73 ×10⁻⁶ cm/s. For the same compound, the fraction unbound at 5 μM in series [1] (pH 7.4, 5 μM, read-out: PPB fraction unbound, dog) amounted to 0.27. The bioavailability in series [2] (in vivo, male Sprague Dawley rats, 1 mg/kg (IV) and 10 mg/kg (PO), read-out: Bioavailability) worked out at 42%. In series [2] (in vivo, male Sprague Dawley rats, read-out: Volume of distribution), the Vd was 22 L/kg. In series [2] (in vivo, male Sprague Dawley rats, 10 mg/kg (PO), read-out: Tmax PO), the Tmax stood at 2.7 h.

As for `CC(C)CCn1c(CN2C(=O)C3(CC3)c3ccccc32)nc2cc(CN)ccc21` [RV039, 1′-((5-(aminomethyl)-1-isopentyl-1H-benzo[d]imidazol-2-yl)methyl)spiro[cyclopropane-1,3′-indolin]-2′-one, reference compound], the half-life at 3 μM in series [3] was greater than 1.67 h. In the series with human P-gp (MDR1), this compound gave a Papp A→B at 60 min, 10 μM of 0.42 ×10⁻⁶ cm/s and a Papp B→A at 60 min, 10 μM of 49 ×10⁻⁶ cm/s. Further, the fraction unbound at 5 μM in series [1] (pH 7.4, Comparative Example 2, read-out: PPB fraction unbound, dog (Table 5)) came to 0.1. Further, the bioavailability in series [2] (male, Sprague Dawley, plasma, rats, 1 mg/kg (IV) and 5 mg/kg (PO), Comparative Example 3, read-out: Bioavailability (Table 6)) amounted to 4.5%. Moreover, the Vd in series [2] (male, Sprague Dawley, plasma, rats, Comparative Example 3, read-out: Volume of distribution (Table 6)) came to 47 L/kg. Further, the time of peak concentration (Tmax) in series [2] (male, Sprague Dawley, plasma, rats, 5 mg/kg (PO), Comparative Example 3, read-out: Tmax PO (Table 6)) was determined as 7.3 h.
